# What was measured:
# [1] = system: Streptococcus mutans; assay: Antibacterial activity against Streptococcus mutans ATCC 25175 assessed as effect on planktonic growth at 0.34 ug/ml after 20 hrs relative to control; assay type: functional
# [2] = system: Staphylococcus aureus; assay: Antibacterial activity against Staphylococcus aureus ATCC 25923 assessed as effect on planktonic growth at 2.73 ug/ml after 20 hrs relative to control; assay type: functional
# [3] = system: Streptococcus mutans; assay: Antibacterial activity against Streptococcus mutans ATCC 25175 assessed as effect on planktonic growth at 21.9 ug/ml after 20 hrs relative to control; assay type: functional
# [4] = system: Staphylococcus aureus; assay: Antibacterial activity against Staphylococcus aureus ATCC 25923 assessed as effect on planktonic growth at 0.68 ug/ml after 20 hrs relative to control; assay type: functional
# [5] = system: Staphylococcus epidermidis; assay: Antibacterial activity against Staphylococcus epidermidis ATCC 35547 assessed as inhibition of biofilm formation after 20 hrs by crystal-violet staining method; assay type: functional, organism-based; details: for IC50: ATCC 35547, 20 h
# [6] = system: Staphylococcus epidermidis; assay: Antibacterial activity against Staphylococcus epidermidis ATCC 35547 assessed as effect on planktonic growth at 43.8 ug/ml after 20 hrs relative to control; assay type: functional
# [7] = system: Staphylococcus aureus; assay: Antibacterial activity against Staphylococcus aureus ATCC 25923 assessed as effect on planktonic growth at 0.17 ug/ml after 20 hrs relative to control; assay type: functional
# [8] = system: Streptococcus mutans; assay: Antibacterial activity against Streptococcus mutans ATCC 25175 assessed as effect on planktonic growth at 10.9 ug/ml after 20 hrs relative to control; assay type: functional
# [9] = system: Staphylococcus aureus; assay: Antibacterial activity against Staphylococcus aureus ATCC 25923 assessed as effect on planktonic growth at 1.37 ug/ml after 20 hrs relative to control; assay type: functional
# [10] = system: Streptococcus mutans; assay: Antibacterial activity against Streptococcus mutans ATCC 25175 assessed as effect on planktonic growth at 0.68 ug/ml after 20 hrs relative to control; assay type: functional
# [11] = system: Pseudomonas aeruginosa; assay: Antibacterial activity against Pseudomonas aeruginosa ATCC 27853 assessed as effect on planktonic growth at 43.8 ug/ml after 20 hrs relative to control; assay type: functional
# [12] = system: Staphylococcus epidermidis; assay: Antibacterial activity against Staphylococcus epidermidis ATCC 35547 assessed as effect on planktonic growth at 1.37 ug/ml after 20 hrs relative to control; assay type: functional
# [13] = system: Staphylococcus epidermidis; assay: Antibacterial activity against Staphylococcus epidermidis ATCC 35547 assessed as effect on planktonic growth at 0.34 ug/ml after 20 hrs relative to control; assay type: functional
# [14] = system: Staphylococcus aureus; assay: Antibacterial activity against Staphylococcus aureus ATCC 25923 assessed as effect on planktonic growth at 10.9 ug/ml after 20 hrs relative to control; assay type: functional
# [15] = system: Streptococcus mutans; assay: Antibacterial activity against Streptococcus mutans ATCC 25175 assessed as effect on planktonic growth at 0.17 ug/ml after 20 hrs relative to control; assay type: functional
# [16] = system: Streptococcus mutans; assay: Antibacterial activity against Streptococcus mutans ATCC 25175 assessed as effect on planktonic growth at 5.5 ug/ml after 20 hrs relative to control; assay type: functional
# [17] = system: Staphylococcus epidermidis; assay: Antibacterial activity against Staphylococcus epidermidis ATCC 35547 assessed as effect on planktonic growth at 5.5 ug/ml after 20 hrs relative to control; assay type: functional
# [18] = system: Staphylococcus epidermidis; assay: Antibacterial activity against Staphylococcus epidermidis ATCC 35547 assessed as effect on planktonic growth at 0.68 ug/ml after 20 hrs relative to control; assay type: functional
# [19] = system: Streptococcus mutans; assay: Antibacterial activity against Streptococcus mutans ATCC 25175 assessed as effect on planktonic growth at 2.73 ug/ml after 20 hrs relative to control; assay type: functional
# [20] = system: Staphylococcus aureus; assay: Antibacterial activity against Staphylococcus aureus ATCC 25923 assessed as effect on planktonic growth at 43.8 ug/ml after 20 hrs relative to control; assay type: functional
# [21] = system: Staphylococcus aureus; assay: Antibacterial activity against Staphylococcus aureus ATCC 25923 assessed as effect on planktonic growth at 87.5 ug/ml after 20 hrs relative to control; assay type: functional
# [22] = system: Pseudomonas aeruginosa; assay: Antibacterial activity against Pseudomonas aeruginosa ATCC 27853 assessed as effect on planktonic growth at 21.9 ug/ml after 20 hrs relative to control; assay type: functional
# [23] = system: Staphylococcus aureus; assay: Antibacterial activity against Staphylococcus aureus ATCC 25923 assessed as effect on planktonic growth at 5.5 ug/ml after 20 hrs relative to control; assay type: functional
# [24] = system: Streptococcus mutans; assay: Antibacterial activity against Streptococcus mutans ATCC 25175 assessed as effect on planktonic growth at 1.37 ug/ml after 20 hrs relative to control; assay type: functional
# [25] = system: Pseudomonas aeruginosa; assay: Antibacterial activity against Pseudomonas aeruginosa ATCC 27853 assessed as effect on planktonic growth at 10.9 ug/ml after 20 hrs relative to control; assay type: functional
# [26] = system: Staphylococcus aureus; assay: Antibacterial activity against Staphylococcus aureus ATCC 25923 assessed as effect on planktonic growth at 21.9 ug/ml after 20 hrs relative to control; assay type: functional
# [27] = system: Staphylococcus aureus; assay: Antibacterial activity against Staphylococcus aureus ATCC 25923 assessed as effect on planktonic growth at 0.34 ug/ml after 20 hrs relative to control; assay type: functional
# [28] = system: Staphylococcus epidermidis; assay: Antibacterial activity against Staphylococcus epidermidis ATCC 35547 assessed as effect on planktonic growth at 87.5 ug/ml after 20 hrs relative to control; assay type: functional
# [29] = system: Streptococcus mutans; assay: Antibacterial activity against Streptococcus mutans ATCC 25175 assessed as effect on planktonic growth at 87.5 ug/ml after 20 hrs relative to control; assay type: functional
# [30] = system: Streptococcus mutans; assay: Antibacterial activity against Streptococcus mutans ATCC 25175 assessed as effect on planktonic growth at 43.8 ug/ml after 20 hrs relative to control; assay type: functional
# [31] = system: Pseudomonas aeruginosa; assay: Antibacterial activity against Pseudomonas aeruginosa ATCC 27853 assessed as effect on planktonic growth at 0.17 ug/ml after 20 hrs relative to control; assay type: functional
# [32] = system: Pseudomonas aeruginosa; assay: Antibacterial activity against Pseudomonas aeruginosa ATCC 27853 assessed as effect on planktonic growth at 0.34 ug/ml after 20 hrs relative to control; assay type: functional
# [33] = system: Staphylococcus epidermidis; assay: Antibacterial activity against Staphylococcus epidermidis ATCC 35547 assessed as effect on planktonic growth at 10.9 ug/ml after 20 hrs relative to control; assay type: functional
# [34] = system: Staphylococcus epidermidis; assay: Antibacterial activity against Staphylococcus epidermidis ATCC 35547 assessed as effect on planktonic growth at 21.9 ug/ml after 20 hrs relative to control; assay type: functional
# [35] = system: Pseudomonas aeruginosa; assay: Antibacterial activity against Pseudomonas aeruginosa ATCC 27853 assessed as inhibition of biofilm formation after 20 hrs by crystal-violet staining method; assay type: functional, organism-based; details: for IC50: ATCC 27853, 20 h
# [36] = system: Staphylococcus epidermidis; assay: Antibacterial activity against Staphylococcus epidermidis ATCC 35547 assessed as effect on planktonic growth at 2.73 ug/ml after 20 hrs relative to control; assay type: functional
# [37] = system: Pseudomonas aeruginosa; assay: Antibacterial activity against Pseudomonas aeruginosa ATCC 27853 assessed as effect on planktonic growth at 1.37 ug/ml after 20 hrs relative to control; assay type: functional
# [38] = system: Staphylococcus epidermidis; assay: Antibacterial activity against Staphylococcus epidermidis ATCC 35547 assessed as effect on planktonic growth at 0.17 ug/ml after 20 hrs relative to control; assay type: functional
# [39] = system: Pseudomonas aeruginosa; assay: Antibacterial activity against Pseudomonas aeruginosa ATCC 27853 assessed as effect on planktonic growth at 2.73 ug/ml after 20 hrs relative to control; assay type: functional
# [40] = system: Pseudomonas aeruginosa; assay: Antibacterial activity against Pseudomonas aeruginosa ATCC 27853 assessed as effect on planktonic growth at 0.68 ug/ml after 20 hrs relative to control; assay type: functional
# [41] = system: Pseudomonas aeruginosa; assay: Antibacterial activity against Pseudomonas aeruginosa ATCC 27853 assessed as effect on planktonic growth at 87.5 ug/ml after 20 hrs relative to control; assay type: functional
# [42] = system: Pseudomonas aeruginosa; assay: Antibacterial activity against Pseudomonas aeruginosa ATCC 27853 assessed as effect on planktonic growth at 5.5 ug/ml after 20 hrs relative to control; assay type: functional
structure (smiles),measurement,setting,value
COc1ccccc1C1=C(Br)C(=O)O/C1=C\c1ccc(C(F)(F)F)cc1,Activity,[1],1.1%
same,Activity,[2],6.6%
same,Activity,[3],0.6%
same,Activity,[4],-2.3%
same,inhibition,[5],Dose-dependent effect
same,IC50,[5],> 87.5 µg/mL
same,Activity,[6],30.7%
same,Activity,[7],-3.6%
same,Activity,[8],-9.3%
same,Activity,[9],-0.5%
same,Activity,[10],-1.7%
same,Activity,[11],34.3%
same,Activity,[12],2.9%
same,Activity,[13],-14.8%
same,Activity,[14],9.7%
same,Activity,[15],-3.1%
same,Activity,[16],-4.8%
same,Activity,[17],-9.1%
same,Activity,[18],-16.5%
same,Activity,[19],-4%
same,Activity,[20],47.3%
same,Activity,[21],81.2%
same,Activity,[22],58%
same,Activity,[23],9.9%
same,Activity,[24],-6.5%
same,Activity,[25],49.9%
same,Activity,[26],26.7%
same,Activity,[27],-2%
same,Activity,[28],14.7%
same,Activity,[29],58.9%
same,Activity,[30],21.5%
same,Activity,[31],-1.3%
same,Activity,[32],-0.4%
same,Activity,[33],10.3%
same,Activity,[34],18.7%
same,inhibition,[35],Dose-dependent effect
same,IC50,[35],> 87.5 µg/mL
same,Activity,[36],12.9%
same,Activity,[37],-5.7%
same,Activity,[38],-12.1%
same,Activity,[39],-7%
same,Activity,[40],-1.3%
same,Activity,[41],15.1%
same,Activity,[42],7.9%
COc1ccc(Cl)cc1C1=C(Br)C(=O)N(CC(C)C)/C1=C/c1ccccc1Br,Activity,[1],-18.8%
same,Activity,[2],7.5%
same,Activity,[3],7%
same,Activity,[4],3%
same,inhibition,[5],Dose-dependent effect
same,IC50,[5],33.2 µg/mL
same,Activity,[6],21.8%
same,Activity,[7],2.7%
same,Activity,[8],-4.3%
same,Activity,[9],-2.5%
same,Activity,[10],-13.4%
same,Activity,[11],-14.6%
same,Activity,[12],-0.4%
same,Activity,[13],5.5%
same,Activity,[14],-4.6%
same,Activity,[15],-19.5%
same,Activity,[16],1.8%
same,Activity,[17],2.7%
same,Activity,[18],-2.2%
same,Activity,[19],-3.3%
same,Activity,[20],-4.3%
same,Activity,[21],3.6%
same,Activity,[22],-14.6%
same,Activity,[23],0.2%
same,Activity,[24],-8.2%
same,Activity,[25],-18.1%
same,Activity,[26],-6.2%
same,Activity,[27],-0.7%
same,Activity,[28],31.5%
same,Activity,[29],6.4%
same,Activity,[30],1.5%
same,Activity,[31],-1.8%
same,Activity,[32],-3.9%
same,Activity,[33],-0.4%
same,Activity,[34],10.6%
same,inhibition,[35],Dose-dependent effect
same,IC50,[35],> 87.5 µg/mL
same,Activity,[36],-3.7%
same,Activity,[37],-5.8%
same,Activity,[38],1.9%
same,Activity,[39],-5.8%
same,Activity,[40],-7.5%
same,Activity,[41],-9.1%
same,Activity,[42],-5.1%
COc1ccc(Cl)cc1C1=C(Br)C(=O)N(CC(C)C)/C1=C\c1ccccc1Br,Activity,[1],10.4%
same,Activity,[2],2.7%
same,Activity,[3],10.4%
same,Activity,[4],12.2%
same,inhibition,[5],Dose-dependent effect
same,IC50,[5],> 87.5 µg/mL
same,Activity,[6],13.5%
same,Activity,[7],11.2%
same,Activity,[8],-3.3%
same,Activity,[9],12.4%
same,Activity,[10],11%
same,Activity,[11],-6.6%
same,Activity,[12],-3.8%
same,Activity,[13],-0.2%
same,Activity,[14],-1.2%
same,Activity,[15],12.4%
same,Activity,[16],-1.6%
same,Activity,[17],-5.7%
same,Activity,[18],-5.2%
same,Activity,[19],9.6%
same,Activity,[20],23.6%
same,Activity,[21],48%
same,Activity,[22],-9.6%
same,Activity,[23],2.5%
same,Activity,[24],8.5%
same,Activity,[25],-11.5%
same,Activity,[26],7.5%
same,Activity,[27],17.2%
same,Activity,[28],6.9%
same,Activity,[29],23.4%
same,Activity,[30],7.4%
same,Activity,[31],-2.5%
same,Activity,[32],-4%
same,Activity,[33],-3.2%
same,Activity,[34],2.1%
same,inhibition,[35],Dose-dependent effect
same,IC50,[35],0.7 µg/mL
same,Activity,[36],-6%
same,Activity,[37],0.4%
same,Activity,[38],-2.5%
same,Activity,[39],-3.1%
same,Activity,[40],-0.1%
same,Activity,[41],10%
same,Activity,[42],-5.5%
